Data taken from the Kinase Knowledgebase extract (Sharma et al. 2016).
“And” between values parts separate entries of the source, which are not always exact repeats. Equal entries are not always repeated.

Columns and labels:
Assay in all cases: Enzyme Assay
CDK2 [1] = target: CDK2 (UniProt P24941)
CDK2 [2] = target: CDK2 (UniProt P24941); remark: listed apart in the source
CDK2 [3] = target: CDK2 (UniProt P24941); remark: listed apart in the source

## CCC(CC)n1c(=O)ccc2cnc(Nc3cccc(C(F)(F)F)c3)nc21
CDK2 [1]
  IC50: 131 nM
CDK2 [2]
  IC50: 600 nM

## O=c1ccc2cnc(Nc3ccc(N4CCCC(O)C4)cc3)nc2n1C1CCCC1 (configuration not stated)
CDK2 [2]
  IC50: 44 nM

## Cc1cc(Nc2ncc3ccc(=O)n(C(C)C)c3n2)ccc1Cl
CDK2 [1]
  IC50: 220 nM
CDK2 [2]
  IC50: 350 nM

## O=c1ccc2cnc(Nc3ccc4cn[nH]c4c3)nc2n1CC1CC1
CDK2 [1]
  IC50: 200 nM
CDK2 [2]
  IC50: 260 nM

## O=c1ccc2cnc(Nc3ccc(-n4cccn4)cc3)nc2n1C1CCCC1
CDK2 [3]
  IC50: 35.7 nM
CDK2 [2]
  IC50: 87 nM

## O=c1ccc2cnc(Nc3ccc(N4CCCCC4)cc3)nc2n1CCCOC1CCCCO1 (configuration not stated)
CDK2 [3]
  IC50: 284 nM
CDK2 [2]
  IC50: 1900 nM

## CCCn1c(=O)ccc2cnc(Nc3cc(OC)c(OC)c(OC)c3)nc21
CDK2 [2]
  IC50: 1650 nM

## CC(C)n1c(=O)ccc2cnc(Nc3ccc(F)c(Cl)c3)nc21
CDK2 [2]
  IC50: 140 nM

## O=c1ccc2cnc(Nc3ccc(N4CCCCC4)cc3)nc2n1C1CCCCC1
CDK2 [3]
  IC50: 66.8 nM
CDK2 [2]
  IC50: 193 nM

## COc1ccc(Nc2ncc3ccc(=O)n(C4CCCC4)c3n2)cc1F
CDK2 [1]
  IC50: 35 nM
CDK2 [2]
  IC50: 75 nM

## CCCn1c(=O)ccc2cnc(Nc3ccc(I)c(Cl)c3)nc21
CDK2 [1]
  IC50: 180 nM
CDK2 [2]
  IC50: 820 nM

## COc1ccc(Nc2ncc3ccc(=O)n(C(C)C)c3n2)cc1
CDK2 [3]
  IC50: 392 nM
CDK2 [2]
  IC50: 540 nM

## O=c1ccc2cnc(Nc3cccc(OC(F)(F)C(F)F)c3)nc2n1C1CC2CCC1C2 (configuration not stated)
CDK2 [3]
  IC50: 275 nM
CDK2 [2]
  IC50: 10000 nM

## O=c1ccc2cnc(Nc3ccc(Br)c(C(F)(F)F)c3)nc2n1C1CCCC1
CDK2 [1]
  IC50: 150 nM
CDK2 [2]
  IC50: 220 nM

## CCCn1c(=O)ccc2cnc(Nc3ccc(NC(=O)OC(C)(C)C)cc3)nc21
CDK2 [1]
  IC50: 820 nM
CDK2 [2]
  IC50: 2450 nM

## O=c1ccc2cnc(Nc3ccc(N4CCC(CCO)CC4)cc3)nc2n1C1CCCCC1
CDK2 [3]
  IC50: 14.2 nM
CDK2 [2]
  IC50: 30 nM

## CCCCn1c(=O)ccc2cnc(Nc3cc(Cl)cc(Cl)c3)nc21
CDK2 [2]
  IC50: 3780 nM

## CCCn1c(=O)ccc2cnc(Nc3ccc(OC)c(O)c3)nc21
CDK2 [1]
  IC50: 240 nM and 670 nM
CDK2 [2]
  IC50: 960 nM and 1100 nM

## O=c1ccc2cnc(Nc3c(F)cc(F)cc3F)nc2n1C1CCCC1
CDK2 [1]
  IC50: 470 nM
CDK2 [2]
  IC50: 330 nM

## CCCn1c(=O)ccc2cnc(N(C)c3ccc(O)c(N4CCOCC4)c3)nc21
CDK2 [1]
  IC50: 680 nM
CDK2 [2]
  IC50: 1100 nM

## CCC(CC)n1c(=O)ccc2cnc(Nc3ccc(F)c(C)c3)nc21
CDK2 [2]
  IC50: 155 nM
